Measured values published in publication doi:10.1101/2024.10.28.620768v1 (biorxiv, 2024).

Molecular target: Cdr1 (Candida albicans, UniProt Q5ANA3)
Assay: microscale thermophoresis, Alexa Fluor 647-labelled Cdr1, Hill fit
Assay type: binding

Chain of Cdr1 (Q5ANA3 whole entry): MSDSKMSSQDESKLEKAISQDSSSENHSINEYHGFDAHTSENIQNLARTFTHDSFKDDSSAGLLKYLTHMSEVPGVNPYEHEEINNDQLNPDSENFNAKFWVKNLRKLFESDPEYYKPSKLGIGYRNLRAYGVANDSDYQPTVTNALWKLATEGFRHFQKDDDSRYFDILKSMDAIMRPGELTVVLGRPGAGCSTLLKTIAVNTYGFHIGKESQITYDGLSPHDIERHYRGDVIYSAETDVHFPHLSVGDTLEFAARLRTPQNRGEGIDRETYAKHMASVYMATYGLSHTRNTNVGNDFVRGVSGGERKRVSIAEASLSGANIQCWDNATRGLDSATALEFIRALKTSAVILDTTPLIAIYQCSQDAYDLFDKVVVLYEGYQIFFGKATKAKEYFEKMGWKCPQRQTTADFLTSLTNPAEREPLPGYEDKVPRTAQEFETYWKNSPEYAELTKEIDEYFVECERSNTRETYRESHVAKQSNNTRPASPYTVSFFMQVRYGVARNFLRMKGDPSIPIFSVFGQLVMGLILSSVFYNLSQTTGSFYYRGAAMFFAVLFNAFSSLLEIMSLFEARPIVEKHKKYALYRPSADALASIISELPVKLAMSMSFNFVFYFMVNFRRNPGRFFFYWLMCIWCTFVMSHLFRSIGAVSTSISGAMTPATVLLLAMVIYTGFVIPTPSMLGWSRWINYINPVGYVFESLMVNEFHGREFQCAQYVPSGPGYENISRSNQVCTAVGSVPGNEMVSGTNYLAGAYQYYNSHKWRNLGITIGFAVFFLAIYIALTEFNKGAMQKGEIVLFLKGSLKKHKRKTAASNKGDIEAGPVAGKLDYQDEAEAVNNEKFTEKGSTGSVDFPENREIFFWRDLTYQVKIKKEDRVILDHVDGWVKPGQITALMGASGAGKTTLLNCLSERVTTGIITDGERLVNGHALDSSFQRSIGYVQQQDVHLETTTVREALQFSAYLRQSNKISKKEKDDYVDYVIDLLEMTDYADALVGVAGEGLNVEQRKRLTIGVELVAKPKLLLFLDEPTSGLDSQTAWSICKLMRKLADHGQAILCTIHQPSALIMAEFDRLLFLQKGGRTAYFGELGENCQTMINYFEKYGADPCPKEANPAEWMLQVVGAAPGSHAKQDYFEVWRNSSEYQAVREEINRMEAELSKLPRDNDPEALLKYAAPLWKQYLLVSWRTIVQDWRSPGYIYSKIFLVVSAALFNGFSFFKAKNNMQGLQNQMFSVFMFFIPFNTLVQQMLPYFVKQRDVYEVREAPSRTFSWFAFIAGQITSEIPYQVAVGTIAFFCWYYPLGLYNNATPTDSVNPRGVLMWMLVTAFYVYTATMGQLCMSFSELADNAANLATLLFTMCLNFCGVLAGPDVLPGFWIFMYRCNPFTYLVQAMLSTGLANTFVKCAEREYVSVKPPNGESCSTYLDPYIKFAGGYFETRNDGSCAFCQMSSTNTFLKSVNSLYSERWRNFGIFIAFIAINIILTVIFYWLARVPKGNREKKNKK

SMILES	Kd [µM]
O=C1OC2(c3cc(F)c(O)cc3Oc3cc(O)c(F)cc32)c2ccccc21 [Oregon Green 488]	32.8 ± 8.2
CCN=c1cc2oc3cc(NCC)c(C)cc3c(-c3ccccc3C(=O)OCC)c-2cc1C [Rhodamine 6G]	59.8 ± 7.1
